Results on 8 compounds are retold here after ChEMBL document CHEMBL1201862, “PubChem BioAssay data set” (2004).

Calls of active or inactive are those of the source. Where only a bound is given, the exact number is not on record here.

For assay [1], the target named is Arf-GAP with SH3 domain, ANK repeat and PH domain-containing protein 1 (Homo sapiens, UniProt Q9ULH1). The assay is classed as functional.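 Further: biochemical fluorescence polarization dose–response screen measuring inhibition of ASAP1; ASAP1 GAP domain stimulating GTP hydrolysis by truncated human ARF1.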
Arf-GAP with SH3 domain, ANK repeat and PH domain-containing protein 1, sequence (Q9ULH1 whole entry, the tested form may be a part): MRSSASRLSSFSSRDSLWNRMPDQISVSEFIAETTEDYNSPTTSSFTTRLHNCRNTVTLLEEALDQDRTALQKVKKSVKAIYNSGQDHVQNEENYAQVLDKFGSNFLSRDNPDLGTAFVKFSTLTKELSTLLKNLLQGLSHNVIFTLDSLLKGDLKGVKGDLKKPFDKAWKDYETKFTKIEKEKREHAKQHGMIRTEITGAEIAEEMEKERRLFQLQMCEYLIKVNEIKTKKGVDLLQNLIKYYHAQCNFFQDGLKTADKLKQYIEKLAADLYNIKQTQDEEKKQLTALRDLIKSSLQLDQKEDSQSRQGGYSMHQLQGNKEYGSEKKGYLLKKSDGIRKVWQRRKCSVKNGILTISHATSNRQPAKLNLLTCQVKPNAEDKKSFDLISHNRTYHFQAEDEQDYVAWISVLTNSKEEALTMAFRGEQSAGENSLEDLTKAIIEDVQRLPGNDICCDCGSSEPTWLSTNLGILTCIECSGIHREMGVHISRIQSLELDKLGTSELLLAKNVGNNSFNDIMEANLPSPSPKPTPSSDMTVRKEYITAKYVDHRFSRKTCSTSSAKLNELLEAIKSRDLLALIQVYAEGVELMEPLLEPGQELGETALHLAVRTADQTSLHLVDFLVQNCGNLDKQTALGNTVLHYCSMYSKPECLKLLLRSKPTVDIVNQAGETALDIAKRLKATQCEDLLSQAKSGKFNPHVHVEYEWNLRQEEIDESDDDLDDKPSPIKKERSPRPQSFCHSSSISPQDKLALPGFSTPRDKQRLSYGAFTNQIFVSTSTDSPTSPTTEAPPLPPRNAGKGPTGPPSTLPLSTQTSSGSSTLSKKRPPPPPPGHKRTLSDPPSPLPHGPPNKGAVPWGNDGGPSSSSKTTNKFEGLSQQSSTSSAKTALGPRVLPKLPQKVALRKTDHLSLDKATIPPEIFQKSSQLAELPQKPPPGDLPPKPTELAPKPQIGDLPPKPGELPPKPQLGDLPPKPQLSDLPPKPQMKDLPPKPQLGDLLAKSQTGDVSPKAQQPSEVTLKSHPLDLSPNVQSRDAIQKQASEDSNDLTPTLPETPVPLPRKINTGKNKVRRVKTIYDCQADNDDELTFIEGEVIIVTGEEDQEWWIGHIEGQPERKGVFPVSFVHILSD
The target of assay [2] is Dual specificity protein phosphatase 3 (Homo sapiens, UniProt P51452). The experiment in a line: VHR phosphatase inhibition, dose response, selectivity assay for STEP inhibitor project, biochemical (AID 602374). The assay is classed as functional. The note with it: read-out: IC50_Mean.
Dual specificity protein phosphatase 3, sequence (P51452 whole entry): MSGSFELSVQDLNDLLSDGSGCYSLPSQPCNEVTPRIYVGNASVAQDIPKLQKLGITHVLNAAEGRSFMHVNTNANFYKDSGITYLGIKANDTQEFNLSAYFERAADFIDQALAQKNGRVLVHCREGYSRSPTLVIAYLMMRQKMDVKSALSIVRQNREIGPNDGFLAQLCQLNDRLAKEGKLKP
Assay [3] has as its target Tyrosine-protein phosphatase non-receptor type 5 (Homo sapiens, UniProt P54829). The assay is described as follows: STEP phosphatase inhibitors, confirmation, biochemical, fluorescence intensity, uHTS hits (AID 602372). The assay is classed as functional. The note with it: read-out: IC50_Mean.
Assay [4] has as its target Tyrosine-protein phosphatase non-receptor type 11 (Homo sapiens, UniProt Q06124). The assay is described as follows: SHP2 phosphatase inhibition, dose response, selectivity assay for STEP inhibitor project, biochemical (AID 602367). The assay is classed as functional. The conditions noted are these: read-out: IC50_Mean.
The next assay addresses Paired box protein Pax-8 (Homo sapiens, UniProt Q06710). The assay is described as follows: inhibitors of PAX8-driven TPO luciferase reporter, dose response, RMG-I cells, cherry-pick (AID 687027).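 Further: luciferase reporter driven by Pax8 target thyroperoxidase promoter measured by SteadyGlo luminescence.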 The assay is classed as functional, cell-based.
Assay [5] can be described thus: non-specific cell cytotoxicity, dose response, cytotoxicity control for PAX8 inhibitor project, plate reader, dry powder samples (AID 743021). The assay is classed as functional, cell-based.
In assay [6] the target is T1, Beta-lactamase (Pseudomonas aeruginosa, UniProt Q79MP6). The experiment in a line: IMP-1 metallo-beta-lactamase inhibitors, dose response, selectivity assay for VIM-2 inhibitor project, biochemical, epi-absorbance (AID 1920).
T1 sequence (Q79MP6 whole entry): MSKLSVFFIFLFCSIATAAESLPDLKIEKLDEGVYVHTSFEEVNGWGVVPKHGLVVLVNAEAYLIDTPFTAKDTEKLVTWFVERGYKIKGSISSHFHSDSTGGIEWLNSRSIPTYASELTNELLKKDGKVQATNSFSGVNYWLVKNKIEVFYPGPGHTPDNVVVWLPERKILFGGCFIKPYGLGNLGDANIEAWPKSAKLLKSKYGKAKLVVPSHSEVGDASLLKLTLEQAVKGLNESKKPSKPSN
In assay [7] the target is Beta-lactamase (Salmonella choleraesuis (strain SC-B67), UniProt Q5J463). The assay is described as follows: Epi-absorbance-based counterscreen for selective VIM-2 inhibitors: dose response biochemical high throughput screening assay to identify inhibitors of TEM-1 serine-beta-lactamase.
Beta-lactamase (Salmonella choleraesuis (strain SC-B67), UniProt Q5J463), sequence (Q5J463 whole entry): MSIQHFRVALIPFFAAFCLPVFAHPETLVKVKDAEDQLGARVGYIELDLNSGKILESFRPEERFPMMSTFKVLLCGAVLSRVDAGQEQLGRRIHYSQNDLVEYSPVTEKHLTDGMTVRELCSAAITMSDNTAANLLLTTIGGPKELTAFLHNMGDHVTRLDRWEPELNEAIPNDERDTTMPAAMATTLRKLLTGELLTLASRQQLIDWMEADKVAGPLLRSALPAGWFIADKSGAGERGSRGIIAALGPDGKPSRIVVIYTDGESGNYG
For assay [8], the target named is T1, Beta-lactamase. The experiment in a line: […] counterscreen for selective VIM-2 inhibitors: dose response biochemical high throughput screening assay to identify inhibitors of IMP-1 metallo-beta-lactamase.
The next assay concerns the target Beta-galactosidase (Escherichia coli, UniProt Q8VNN2). The assay is described as follows: Dose response counterscreen for EBI2 assay utilizing the enzyme, b-galactosidase. The assay is classed as functional.
Assay [9] can be described thus: cells.
A further assay addresses T2, Bcl-2-like protein 10 (Homo sapiens, UniProt Q9HD36).
T2 sequence (Q9HD36 whole entry): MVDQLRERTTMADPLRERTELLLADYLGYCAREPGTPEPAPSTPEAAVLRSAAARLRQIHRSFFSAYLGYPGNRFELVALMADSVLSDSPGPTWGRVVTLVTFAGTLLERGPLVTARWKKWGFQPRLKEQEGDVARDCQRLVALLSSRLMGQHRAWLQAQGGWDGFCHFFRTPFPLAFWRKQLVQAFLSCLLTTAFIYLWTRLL
The experiment in a line: displacers of TR3 peptide from Bcl-B, primary screen, selectivity assay for Bfl-1 inhibitor project, biochemical, fluorescence polarization, FITC-TR3 peptide (AID 748).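 Further: fluorescence polarization from a fluorescein-labelled TR3 peptide binding purified Bcl-B.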

Assay [10] can be described thus: cells. The note with it: A549.
Assay [11] is described as follows: HEK293 Cytotoxicity Assay Measured in Cell-Based System Using Plate Reader - 7071-01_Inhibitor_Dose_CherryPick_Activity_Set2. The assay is classed as functional.
The next assay has as its system HEK293. The assay is described as follows: HEK293T cell cytotoxicity, dose response, cytotoxicity control, ATP luminescence, cherry-pick samples (AID 687005).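 Further: cells exposed to compound for 48 hours.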 The assay is classed as functional, cell-based. The note with it: Homo sapiens.
Assay [12] in a line: Counterscreen for inhibitors of Trypanosoma brucei methionyl tRNA synthetase (MetRS): Luminescence-based cell-based high throughput dose response assay to identify compounds that are cytotoxic to Jurkat human T lymphocyte cells. The assay is classed as functional.
Assay [13] has as its target T3, Methionyl-tRNA synthetase, putative (Trypanosoma brucei brucei, UniProt Q38C91). The assay is classed as functional, Trypanosoma brucei brucei strain 927/4 GUTat10.1.
A further assay concerns Vero. The assay is described as follows: cells. The assay is classed as functional. The note with it: Chlorocebus sabaeus.
Assay [14] can be described thus: Late stage counterscreen for inhibitors of Trypanosoma brucei methionyl tRNA synthetase (MetRS): Luminescence-based cell-based high throughput dose response assay to identify compounds that are cytotoxic to Jurkat human T lymphocyte cells. The assay is classed as functional.
Assay [15] deals with T3, Methionyl-tRNA synthetase, putative. The assay is classed as functional, Trypanosoma brucei brucei strain 927/4 GUTat10.1. This is another data set of the same source.
The test system of another assay is INS1. The assay is described as follows: beta cell apoptosis inhibitors, cytokine rescue, dose response, luminescence, retest (AID 449756).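 Further: cell death triggered by IL-1 beta plus TNF-alpha plus IFN-gamma mixture; protective hits raise ATP signal compared with cytokine alone wells.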 The assay is classed as functional, cell-based. The note with it: Rattus norvegicus.
A further assay has as its target Large T antigen (Simian virus 40, UniProt P03070). The assay is classed as functional, Betapolyomavirus macacae.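 Further: Confirmatory-stage PubChem screen for compounds that inhibit SV40 T antigen.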
The target of a further assay is Protein Wnt-3a (Mus musculus, UniProt P27467). The assay is described as follows: Wnt3a-driven reporter signaling inhibition, dose response, selectivity assay for Gli-SUFU antagonist project, Wnt-LIGHT cells, luminescence (AID 651570).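 Further: Wnt-LIGHT reporter cells stimulated with conditioned medium from Wnt3a-producing cells.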 The conditions noted are these: read-out: IC50_Mean. The assay is classed as functional.
Protein Wnt-3a, sequence (P27467 whole entry): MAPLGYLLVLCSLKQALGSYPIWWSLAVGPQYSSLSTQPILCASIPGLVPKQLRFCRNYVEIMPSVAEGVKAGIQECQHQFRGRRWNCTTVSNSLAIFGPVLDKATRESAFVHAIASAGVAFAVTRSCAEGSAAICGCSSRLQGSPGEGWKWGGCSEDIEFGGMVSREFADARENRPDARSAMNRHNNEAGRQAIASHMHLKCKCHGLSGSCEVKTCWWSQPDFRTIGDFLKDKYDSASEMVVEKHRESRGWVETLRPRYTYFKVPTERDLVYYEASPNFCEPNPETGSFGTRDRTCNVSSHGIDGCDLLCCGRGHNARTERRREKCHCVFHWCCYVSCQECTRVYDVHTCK
The nature of assay [16]: HeLa cell cytotoxicity, dose response, cytotoxicity control for MgcRacGAP inhibitor project (AID 624300). The assay is classed as functional.
For assay [17], the target named is Matrix metalloproteinase-14 (Homo sapiens, UniProt P50281). The experiment in a line: Dose Response confirmation of uHTS hits for a small molecule inhibitors of MT1-MMP activation in a fluorescence assay set 2. The assay is classed as functional.
For assay [18], the target named is T4, Rac GTPase-activating protein 1 (Homo sapiens, UniProt Q9H0H5).
T4 sequence (Q9H0H5 whole entry): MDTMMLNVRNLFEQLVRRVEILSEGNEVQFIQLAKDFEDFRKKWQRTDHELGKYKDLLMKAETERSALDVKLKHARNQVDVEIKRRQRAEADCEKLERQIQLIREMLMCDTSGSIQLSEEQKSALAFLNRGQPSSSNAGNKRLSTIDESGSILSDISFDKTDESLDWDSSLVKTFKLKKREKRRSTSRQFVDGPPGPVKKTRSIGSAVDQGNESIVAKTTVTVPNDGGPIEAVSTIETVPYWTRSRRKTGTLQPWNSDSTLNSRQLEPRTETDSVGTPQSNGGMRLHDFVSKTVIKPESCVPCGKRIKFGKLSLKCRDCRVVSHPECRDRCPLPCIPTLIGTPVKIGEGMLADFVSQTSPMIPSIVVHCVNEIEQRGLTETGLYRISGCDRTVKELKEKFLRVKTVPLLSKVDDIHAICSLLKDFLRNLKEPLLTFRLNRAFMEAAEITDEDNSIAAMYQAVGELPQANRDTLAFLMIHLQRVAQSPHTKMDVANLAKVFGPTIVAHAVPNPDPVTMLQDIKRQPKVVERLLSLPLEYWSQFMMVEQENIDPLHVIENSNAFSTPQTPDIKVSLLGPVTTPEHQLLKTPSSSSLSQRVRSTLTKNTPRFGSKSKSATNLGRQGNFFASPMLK
The experiment in a line: MgcRacGAP GTPase-activating activity inhibitors, confirmation, biochemical, ADP Hunter fluorescence, primary and confirmatory (AID 624330). The assay is classed as functional.

T3 sequence (Q38C91 whole entry): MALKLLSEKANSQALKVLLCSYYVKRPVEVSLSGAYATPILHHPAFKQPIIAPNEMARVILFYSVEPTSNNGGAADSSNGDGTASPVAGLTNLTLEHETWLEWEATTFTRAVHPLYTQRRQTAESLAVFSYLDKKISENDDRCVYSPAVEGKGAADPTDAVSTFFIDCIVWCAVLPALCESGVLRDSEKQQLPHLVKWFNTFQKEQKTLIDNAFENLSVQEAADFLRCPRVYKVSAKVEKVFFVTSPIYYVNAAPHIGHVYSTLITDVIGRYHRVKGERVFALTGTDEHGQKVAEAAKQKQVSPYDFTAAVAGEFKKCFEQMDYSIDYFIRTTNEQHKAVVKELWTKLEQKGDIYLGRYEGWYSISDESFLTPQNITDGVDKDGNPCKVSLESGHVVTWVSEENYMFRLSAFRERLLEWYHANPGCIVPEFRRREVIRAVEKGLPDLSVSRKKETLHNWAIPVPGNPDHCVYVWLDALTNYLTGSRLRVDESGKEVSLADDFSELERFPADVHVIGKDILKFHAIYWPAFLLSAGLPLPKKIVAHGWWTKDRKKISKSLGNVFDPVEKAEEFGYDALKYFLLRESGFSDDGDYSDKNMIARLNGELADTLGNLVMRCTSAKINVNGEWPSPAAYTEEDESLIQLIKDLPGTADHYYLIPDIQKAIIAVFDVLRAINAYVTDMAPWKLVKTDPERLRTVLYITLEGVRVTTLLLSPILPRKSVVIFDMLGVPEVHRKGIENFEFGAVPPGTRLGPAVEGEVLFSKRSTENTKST
Large T antigen, sequence (P03070 whole entry): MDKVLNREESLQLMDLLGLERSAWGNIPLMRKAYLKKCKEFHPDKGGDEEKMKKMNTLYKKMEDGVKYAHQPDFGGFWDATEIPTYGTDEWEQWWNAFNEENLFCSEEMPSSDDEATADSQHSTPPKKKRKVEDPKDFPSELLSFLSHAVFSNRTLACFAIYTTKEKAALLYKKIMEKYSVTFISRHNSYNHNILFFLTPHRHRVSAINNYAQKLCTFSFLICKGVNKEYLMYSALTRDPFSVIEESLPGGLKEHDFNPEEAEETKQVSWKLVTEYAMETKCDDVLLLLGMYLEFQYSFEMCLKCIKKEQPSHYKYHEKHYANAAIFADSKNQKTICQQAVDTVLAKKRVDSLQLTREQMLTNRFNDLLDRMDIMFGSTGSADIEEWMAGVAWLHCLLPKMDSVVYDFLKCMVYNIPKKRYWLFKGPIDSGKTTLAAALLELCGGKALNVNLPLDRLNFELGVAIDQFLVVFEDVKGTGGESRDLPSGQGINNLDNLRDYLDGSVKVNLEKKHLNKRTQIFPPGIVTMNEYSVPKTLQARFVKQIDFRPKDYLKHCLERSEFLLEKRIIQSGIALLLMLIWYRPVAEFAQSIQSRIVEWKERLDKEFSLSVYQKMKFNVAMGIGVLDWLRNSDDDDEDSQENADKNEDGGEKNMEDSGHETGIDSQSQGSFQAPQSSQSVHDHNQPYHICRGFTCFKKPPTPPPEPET
Tyrosine-protein phosphatase non-receptor type 5, sequence (P54829 whole entry): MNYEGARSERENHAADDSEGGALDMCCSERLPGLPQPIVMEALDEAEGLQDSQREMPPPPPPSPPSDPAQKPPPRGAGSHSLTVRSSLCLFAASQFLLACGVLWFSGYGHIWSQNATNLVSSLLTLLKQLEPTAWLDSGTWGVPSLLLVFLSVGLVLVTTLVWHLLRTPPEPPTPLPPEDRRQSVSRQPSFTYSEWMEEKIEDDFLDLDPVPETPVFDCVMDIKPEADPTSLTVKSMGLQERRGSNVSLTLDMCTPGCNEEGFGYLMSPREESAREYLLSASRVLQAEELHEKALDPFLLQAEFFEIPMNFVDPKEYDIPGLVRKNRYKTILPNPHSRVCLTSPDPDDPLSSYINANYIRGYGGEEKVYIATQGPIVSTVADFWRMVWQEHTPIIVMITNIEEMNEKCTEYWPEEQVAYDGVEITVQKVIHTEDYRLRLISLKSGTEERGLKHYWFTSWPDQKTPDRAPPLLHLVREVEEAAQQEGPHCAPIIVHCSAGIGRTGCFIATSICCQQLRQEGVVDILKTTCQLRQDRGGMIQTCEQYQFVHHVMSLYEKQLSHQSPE
Paired box protein Pax-8, sequence (Q06710 whole entry): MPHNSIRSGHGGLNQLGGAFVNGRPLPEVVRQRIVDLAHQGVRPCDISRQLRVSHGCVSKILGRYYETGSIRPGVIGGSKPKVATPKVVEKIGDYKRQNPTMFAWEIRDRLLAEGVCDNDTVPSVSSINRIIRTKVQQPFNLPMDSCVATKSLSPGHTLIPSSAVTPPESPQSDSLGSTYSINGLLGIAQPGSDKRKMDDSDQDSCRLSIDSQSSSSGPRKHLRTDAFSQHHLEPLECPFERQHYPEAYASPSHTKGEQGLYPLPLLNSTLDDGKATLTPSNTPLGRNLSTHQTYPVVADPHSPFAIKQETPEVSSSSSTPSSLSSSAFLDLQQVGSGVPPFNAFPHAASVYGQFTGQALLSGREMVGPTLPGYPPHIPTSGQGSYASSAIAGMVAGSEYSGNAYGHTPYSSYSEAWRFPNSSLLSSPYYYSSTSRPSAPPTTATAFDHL

On to `NC(=NOC(=O)c1cccc2ccccc12)c1cccc([N+](=O)[O-])c1`, for which the IC50 in assay [1] is 20.9 µM (inactive); in [2] it was 5.16 µM (active); in [3], 29.7 µM (inactive); in [4], 5.9 µM (active).
With `CC(C)(C)OC(=O)NCCCC[C@H](NC(=O)c1[nH]cnc1C(=O)Nc1ccc(CNC(=O)OC(C)(C)C)cc1)C(=O)OC(C)(C)C`, the AC50 was 4.41 µM (active) on Paired box protein Pax-8 and 7.72 µM (active) in [5].
Regarding `Cc1cccc(C(=O)Nc2nnc(SCC(=O)NCc3ccco3)s2)c1`, the IC50 on Beta-lactamase [6], on Beta-lactamase [7] and on Beta-lactamase [8] was > 59.6 µM (inactive) in each case.
With `O=C(COc1ccc(Cl)cc1)N1CCN(Cc2ccc([N+](=O)[O-])cc2)CC1`, the IC50 at Beta-galactosidase was > 80 µM (inactive).
As to `Cn1c(=N)c(S(=O)(=O)c2ccccc2)cc2c(=O)n3ccccc3nc21`, the values for the AC50 in the assay “cells [9]” and in “cells [10]” were 1.26 µM (active) and > 52 µM (inactive), respectively. Further, at Bcl-2-like protein 10, the IC50 is > 12.5 µM (inactive).
With `Cc1cccc(C)c1NC(=O)CNC(=O)C(C)N1CCCCC1` (stereo unspecified), the AC50 (in assay [11]; with HEK293) was > 52 µM (inactive) throughout.
As to `O=C(C[C@H]1C(=O)N(Cc2ccccc2)C[C@@H]1c1ccc(Br)cc1)Nc1ccc(Br)cc1`, the IC50 in [12] is 83.3 µM (inactive); in assay [13], 3.46 µM (active); in [14], 66.5 µM (inactive); in assay [15] it was 1.78 µM (active). Moreover, the cytotoxic concentration (CC50) with Vero is > 25 µM (active).
Turning to `CN1/C(=C\C=N\NC(=O)c2ccc(O)cc2)C(C)(C)c2ccccc21`, in the assay on INS1, the AC50 is 5.43 µM (active). In addition, the IC50 at Large T antigen was 20.5 µM (active); on Protein Wnt-3a, 15.4 µM (active); in [17], 31.1 µM (inactive); in [18], 60.3 µM (active). Further, in assay [16], the CC50 was 100 µM (active).
